Reference: ChEMBL document CHEMBL3885881, “DrugMatrix”

Species on record: Rattus norvegicus
Assay type: toxicity, organism-based, Sprague-Dawley
Conditions: in vivo, po, route oral GAVAGE, […]; for ALANINE AMINOTRANSFERASE / ALBUMIN / ALKALINE PHOSPHATASE / ASPARTATE AMINOTRANSFERASE / BLOOD UREA NITROGEN / CARBON DIOXIDE / CHOLESTEROL / CREATINE PHOSPHOKINASE / CREATININE / LACTATE DEHYDROGENASE / POTASSIUM / TOTAL BILIRUBIN / TOTAL PROTEIN / PHOSPHORUS / GLUCOSE / LIPASE: tissue Plasma
[1] = 0 mg/kg, 6 h, vehicle control, tissue Blood, dose level Control, time 0.25 day
[2] = 0 mg/kg, 6 h, vehicle control, dose level Control, time 0.25 day
[3] = 0 mg/kg, 24 h, vehicle control, tissue Blood, dose level Control, time 1 day
[4] = 0 mg/kg, 24 h, vehicle control, dose level Control, time 1 day
[5] = 100 mg/kg, 6 h, tissue Blood, dose level M1, time 0.25 day
[6] = 100 mg/kg, 6 h, dose level M1, time 0.25 day
[7] = 100 mg/kg, 24 h, tissue Blood, dose level M1, time 1 day
[8] = 100 mg/kg, 24 h, dose level M1, time 1 day
[9] = 860 mg/kg, 6 h, tissue Blood, dose level High, time 0.25 day
[10] = 860 mg/kg, 6 h, dose level High, time 0.25 day
[11] = 860 mg/kg, 24 h, tissue Blood, dose level High, time 1 day
[12] = 860 mg/kg, 24 h, dose level High, time 1 day

Description: DrugMatrix - Regimen: Single

## CC(C)OC(=O)C(C)(C)Oc1ccc(C(=O)c2ccc(Cl)cc2)cc1 [FENOFIBRATE]
[1]
  ABSOLUTE EOSINOPHIL: 0 CELLS/uL
  ABSOLUTE LYMPHOCYTE: 8631 CELLS/uL
  ABSOLUTE MONOCYTE: 171.17 CELLS/uL
  ABSOLUTE SEGMENTED NEUTROPHIL: 1214.5 CELLS/uL
  BASOPHIL: 0%
  EOSINOPHIL: 0%
  ERYTHROCYTE COUNT: 5.42 x10E6/uL
  HEMATOCRIT: 34.7%
  HEMOGLOBIN: 13.67 G/DL
  LYMPHOCYTE: 86.17%
  MEAN CORPUSCULAR HEMOGLOBIN CONCENTRATION: 39.42 G/DL
  MEAN CORPUSCULAR VOLUME: 64.12 fL
  NEUTROPHIL: 12.17%
  NUCLEATED RED BLOOD CELLS: 0 /100WBC
[2]
  ALANINE AMINOTRANSFERASE: 61 u/L
  ALBUMIN: 4.67 G/DL
  ALKALINE PHOSPHATASE: 312.5 u/L
  ASPARTATE AMINOTRANSFERASE: 117.5 u/L
  BLOOD UREA NITROGEN: 8.67 mg/dL
  CARBON DIOXIDE: 26.33 mmol/L
  CHOLESTEROL: 72 mg/dL
  CREATINE PHOSPHOKINASE: 283.33 u/L
  CREATININE: 0.28 mg/dL
  LACTATE DEHYDROGENASE: 95.33 u/L
  POTASSIUM: 5.75 MEQ/L
  TOTAL BILIRUBIN: 0.3 mg/dL
  TOTAL PROTEIN: 5.43 G/DL
[3]
  ABSOLUTE EOSINOPHIL: 90.83 CELLS/uL
  ABSOLUTE LYMPHOCYTE: 14725.17 CELLS/uL
  ABSOLUTE MONOCYTE: 220 CELLS/uL
  ABSOLUTE SEGMENTED NEUTROPHIL: 1080.67 CELLS/uL
  BASOPHIL: 0%
  EOSINOPHIL: 0.67%
  ERYTHROCYTE COUNT: 5.3 x10E6/uL
  HEMATOCRIT: 33.4%
  HEMOGLOBIN: 13.4 G/DL
  LYMPHOCYTE: 91.17%
  MEAN CORPUSCULAR HEMOGLOBIN CONCENTRATION: 40.12 G/DL
  MEAN CORPUSCULAR VOLUME: 63.05 fL
  NEUTROPHIL: 6.67%
  NUCLEATED RED BLOOD CELLS: 0 /100WBC
[4]
  ALANINE AMINOTRANSFERASE: 69 u/L
  ALBUMIN: 4.33 G/DL
  ALKALINE PHOSPHATASE: 269 u/L
  ASPARTATE AMINOTRANSFERASE: 83.67 u/L
  BLOOD UREA NITROGEN: 14 mg/dL
  CARBON DIOXIDE: 29 mmol/L
  CHOLESTEROL: 66.67 mg/dL
  CREATINE PHOSPHOKINASE: 355 u/L
  CREATININE: 0.18 mg/dL
  LACTATE DEHYDROGENASE: 123.33 u/L
  PHOSPHORUS: 8.83 mg/dL
  POTASSIUM: 6.06 MEQ/L
  TOTAL BILIRUBIN: 0.2 mg/dL
  TOTAL PROTEIN: 5.72 G/DL
[5]
  ABSOLUTE EOSINOPHIL: 0 CELLS/uL
  ABSOLUTE LYMPHOCYTE: 15645.5 CELLS/uL
  ABSOLUTE MONOCYTE: 363.5 CELLS/uL
  ABSOLUTE SEGMENTED NEUTROPHIL: 1824.33 CELLS/uL
  BASOPHIL: 0%
  EOSINOPHIL: 0%
  ERYTHROCYTE COUNT: 5.47 x10E6/uL
  HEMATOCRIT: 34.7%
  HEMOGLOBIN: 13.57 G/DL
  LYMPHOCYTE: 88%
  MEAN CORPUSCULAR HEMOGLOBIN CONCENTRATION: 39.12 G/DL
  MEAN CORPUSCULAR VOLUME: 63.42 fL
  NUCLEATED RED BLOOD CELLS: 0 /100WBC
[6]
  ALANINE AMINOTRANSFERASE: 47.67 u/L
  ALBUMIN: 4.43 G/DL
  ALKALINE PHOSPHATASE: 355.83 u/L
  ASPARTATE AMINOTRANSFERASE: 100.33 u/L
  BLOOD UREA NITROGEN: 8.17 mg/dL
  CARBON DIOXIDE: 21.33 mmol/L
  CHOLESTEROL: 77.33 mg/dL
  CREATINE PHOSPHOKINASE: 740.17 u/L
  CREATININE: 0.18 mg/dL
  LACTATE DEHYDROGENASE: 327.83 u/L
  PHOSPHORUS: 12.3 mg/dL
  TOTAL BILIRUBIN: 0.22 mg/dL
  TOTAL PROTEIN: 5.92 G/DL
[7]
  ABSOLUTE EOSINOPHIL: 24.83 CELLS/uL
  ABSOLUTE LYMPHOCYTE: 12569.67 CELLS/uL
  ABSOLUTE MONOCYTE: 401.83 CELLS/uL
  ABSOLUTE SEGMENTED NEUTROPHIL: 920.33 CELLS/uL
  BASOPHIL: 0%
  EOSINOPHIL: 0.17%
  ERYTHROCYTE COUNT: 4.96 x10E6/uL
  HEMATOCRIT: 32.78%
  HEMOGLOBIN: 13.08 G/DL
  LYMPHOCYTE: 90.5%
  MEAN CORPUSCULAR HEMOGLOBIN: 26.38 pg
  MEAN CORPUSCULAR HEMOGLOBIN CONCENTRATION: 39.95 G/DL
  MEAN CORPUSCULAR VOLUME: 66.03 fL
  NEUTROPHIL: 6.67%
  NUCLEATED RED BLOOD CELLS: 0.33 /100WBC
[8]
  ALANINE AMINOTRANSFERASE: 74.83 u/L
  ALBUMIN: 4.45 G/DL
  ALKALINE PHOSPHATASE: 321.17 u/L
  ASPARTATE AMINOTRANSFERASE: 86.17 u/L
  BLOOD UREA NITROGEN: 13 mg/dL
  CARBON DIOXIDE: 30.83 mmol/L
  CHOLESTEROL: 42.83 mg/dL
  CREATINE PHOSPHOKINASE: 282.83 u/L
  CREATININE: 0.19 mg/dL
  GLUCOSE: 147.17 mg/dL
  LIPASE: 9.17 u/L
  TOTAL BILIRUBIN: 0.15 mg/dL
  TOTAL PROTEIN: 5.55 G/DL
[9]
  ABSOLUTE EOSINOPHIL: 0 CELLS/uL
  ABSOLUTE LYMPHOCYTE: 9866.33 CELLS/uL
  ABSOLUTE MONOCYTE: 201 CELLS/uL
  ABSOLUTE SEGMENTED NEUTROPHIL: 1482.67 CELLS/uL
  BASOPHIL: 0%
  EOSINOPHIL: 0%
  ERYTHROCYTE COUNT: 5.53 x10E6/uL
  HEMATOCRIT: 35.82%
  HEMOGLOBIN: 14.02 G/DL
  LYMPHOCYTE: 85%
  MEAN CORPUSCULAR HEMOGLOBIN CONCENTRATION: 39.15 G/DL
  MEAN CORPUSCULAR VOLUME: 64.97 fL
  NEUTROPHIL: 13.17%
  NUCLEATED RED BLOOD CELLS: 0 /100WBC
[10]
  ALANINE AMINOTRANSFERASE: 53.5 u/L
  ALBUMIN: 4.48 G/DL
  ALKALINE PHOSPHATASE: 282.5 u/L
  ASPARTATE AMINOTRANSFERASE: 93.33 u/L
  BLOOD UREA NITROGEN: 9 mg/dL
  CARBON DIOXIDE: 26 mmol/L
  CHOLESTEROL: 64 mg/dL
  CREATINE PHOSPHOKINASE: 406.33 u/L
  CREATININE: 0.16 mg/dL
  LACTATE DEHYDROGENASE: 198.83 u/L
  TOTAL BILIRUBIN: 0.2 mg/dL
  TOTAL PROTEIN: 6.02 G/DL
[11]
  ABSOLUTE EOSINOPHIL: 43 CELLS/uL
  ABSOLUTE LYMPHOCYTE: 12968.67 CELLS/uL
  ABSOLUTE MONOCYTE: 388.33 CELLS/uL
  ABSOLUTE SEGMENTED NEUTROPHIL: 1900 CELLS/uL
  BASOPHIL: 0%
  EOSINOPHIL: 0.33%
  ERYTHROCYTE COUNT: 5.77 x10E6/uL
  HEMATOCRIT: 35.63%
  HEMOGLOBIN: 14.08 G/DL
  LYMPHOCYTE: 85.17%
  MEAN CORPUSCULAR HEMOGLOBIN CONCENTRATION: 39.53 G/DL
  MEAN CORPUSCULAR VOLUME: 61.83 fL
  NEUTROPHIL: 12%
  NUCLEATED RED BLOOD CELLS: 0 /100WBC
[12]
  ALANINE AMINOTRANSFERASE: 115.33 u/L
  ALBUMIN: 4.42 G/DL
  ALKALINE PHOSPHATASE: 359 u/L
  ASPARTATE AMINOTRANSFERASE: 123.33 u/L
  BLOOD UREA NITROGEN: 10.33 mg/dL
  CARBON DIOXIDE: 27.83 mmol/L
  CHOLESTEROL: 51.5 mg/dL
  CREATINE PHOSPHOKINASE: 497 u/L
  CREATININE: 0.24 mg/dL
  GLUCOSE: 134.17 mg/dL
  LACTATE DEHYDROGENASE: 204.83 u/L
  LIPASE: 9 u/L
  POTASSIUM: 5.95 MEQ/L
  TOTAL BILIRUBIN: 0.22 mg/dL
  TOTAL PROTEIN: 5.72 G/DL
